The record followed here is patent EP1224486B1, “USE OF DOUBLE-QUANTUM 1H-NMR SPECTROSCOPY FOR THE IDENTIFICATION OF LIGANDS INTERACTING WITH TARGET BIOMOLECULES” (Pharmacia Italia S.p.A., priority 1999, dated 2001).

Non-standard residues stand in square brackets, D forms with d. Residues, ends and D or L forms follow the SMILES beside them. pY = N[C@@H](Cc1ccc(OP(=O)(O)O)cc1)C(=O)O

For experiment [1], the system named is Grb2-SH2 domain. Briefly: 2D 1H double-quantum NMR screening of compound mixtures for ligand binding. The following applies: mixture 2, each compound 300 µM, protein 50 µM (6:1), 25°C, pH 6.2. The source says:
From a practical point of view, the steps involved in the detection of binding are preferably the following: • a) mixing together from 1 to n chemical compounds not interacting with each other; • b) recording a two-dimensional ^1H DQ or DQC (refocussed or not) relaxation weighted DQ spectrum (preferentially version with PFG) for the said compound mixture in the absence of the target biomolecule; • c) mixing the said compound mixture with the target biomolecule where each of the molecules comprising the mixture is preferably present at a molar ratio to the target biomolecule of about 1:1 to about 20:1 • d) recording a two-dimensional ^1H DQ or DQC (refocussed or not) relaxation weighted DQ spectrum (preferentially version with PFG) for the said compound mixture in the presence of the target biomolecule; • e) comparing the spectra recorded in steps b) and d) to detect which, if any of the chemical entities of the mixture, has interacted with the target biomolecule; and, optionally • f) recording a two-dimensional ^1H DQ or DQC (refocussed or not) relaxation weighted DQ spectrum (preferentially version with PFG) for each of the compounds which have been detected in step (e) above, with and without the target protein.
The feasibility of the invention in identifying ligands was tested with mixtures of compounds against the Grb2-SH2 domain. […]

The target of experiment [2] is T1, Grb2-SH2 domain (Homo sapiens, UniProt P62993).
T1 construct: The SH2 domain of Grb2 was expressed in E. coli as GST fusion proteins; GST (cleaved yes); made in house; host or cells: E. coli
T1 sequence (P62993 60-152 limits assumed): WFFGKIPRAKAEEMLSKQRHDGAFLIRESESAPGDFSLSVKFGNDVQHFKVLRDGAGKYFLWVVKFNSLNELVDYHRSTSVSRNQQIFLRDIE
Briefly: 2D 1H double-quantum (DQ) NMR screening of compound mixtures with and without the protein. It is filed as binding. The following applies: 25°C, pH 6.2; for identification as ligand by comparison of 2D DQ spectra and 2D DQ difference spectrum: mixture 2, 300 µM each compound, 50 µM protein (6:1).
Method: The feasibility of the invention in identifying ligands was tested with mixtures of compounds against the Grb2-SH2 domain. […] Figure 2 illustrates the DQ fingerprint region of a compound mixture (mixture 1) recorded with the pulse sequence of Figure 1a in the absence (a) and in the presence (b) of the protein. […] The NH protein resonances are not visible in Figure 2 (b) due to their short T (SQ)/(2) [formula] and T^DQ and the lower protein concentration (50 µM). The protein aromatic resonances have a longer T (SQ)/(2) [formula] and T^DQ compared to the amide resonances and their presence in the DQ spectrum may interfere with the observation of the ligand signals. Figure 3(a) illustrates the aromatic region of the 2D relaxation weighted DQ spectrum for mixture 1. Figures 3 (b) and (c) depict the same spectral region of the 2D DQ and relaxation weighted DQ spectrum of mixture 1 in the presence of the Grb2 SH2 domain, respectively. […] The large linewidth of all the protein resonances and the antiphase character of the DQ multiplets along ω2 results in complete cancellation of the positive and negative lobes. […] Only the compound resonances that display changes in intensity or chemical shift in the presence of the protein will be visible in the difference spectrum.
All the spectra were acquired at 25°C with the pulse sequences of Figure 1 using a Varian Inova 600 MHz spectrometer equipped with a 5 mm triple-resonance inverse probe and actively shielded x, y, and z- gradient coils. The DQ spectra were collected using 8 to 32 transients for each of the 256 t1 increments (128 t1 values for both the echo and antiecho pathway selections) and with 2048 points in t2. The data were multiplied with a cosine window function in both dimensions prior to the Fourier transformation.
The excitation DQ period τ was 42 ms long and the angle β of the detection pulse was set to 45° and 135° for the antiecho and echo coherence pathway selection, respectively. The coherence selection gradients G1 to G3 were set at the magic angle using only the x and z components of the gradients. The first two PFGs applied at the beginning and end of the excitation double-quantum period were weak gradients for radiation damping suppression. The 2D spectral differencing was performed with the software provided by Varian. The scaling factor used in the examples reported here was -1. However it can be adjusted manually for allowing small variations in concentration of the protein-ligand mixture and ligand mixture solutions.

Turning to `c1ccc2[nH]ccc2c1` [Indole, indole], in experiment [1], the “identification as ligand (2D DQ spectra and 2D DQ difference spectrum with/without protein)” value is “do not interact with the protein”.

In the case of Ac-Tyr-Val-Asn-Val-OH (Ac-YVNV-OH), the “identification as ligand by comparison of 2D DQ spectra and 2D DQ difference spectrum” value in experiment [2] is given as “do not interact with the protein”.

For the compound `CC(=O)N[C@@H](Cc1ccc(OP(=O)(O)O)cc1)C(=O)N[C@H](C(N)=O)C(C)C` [Ac-Tyr(PO3H2)-Val-NH2] (Ac-[pY]-Val-NH2), the “identification as ligand by comparison of 2D DQ spectra and 2D DQ difference spectrum” value in experiment [2] is on record as “potential very weak ligand”; in experiment [2] (listed as compound B) it was “possible weak interaction”.

For “Ac-(N-Me)Phe(p-CH2PO3H2)-Val-Asn-NH-CH2-CH(CH3)2”, the “identification as ligand by comparison of 2D DQ spectra” value in experiment [2] (mixture 1, 100 µM each compound, 50 µM protein (2:1)) is on record as “ligand for Grb2-SH2”.

Turning to Ac-Tyr(PO3H2)-Val-NH-CH2-CH2-CONH2, the “identification as ligand by comparison of 2D DQ spectra and 2D DQ difference spectrum” value in experiment [2] is on record as “potent ligand”.
